The record followed here is patent US8536160B2, “Azaheterocyclyl derivatives of androstanes and androstenes as medicaments for cardiovascular disorders” (priority 2006, dated 2013).

The target in this assay is Dog Kidney Na+, K+-ATPase (Canis lupus familiaris, UniProt P50997). The assay can be described thus: Inhibition of the enzymatic activity of purified Na+,K+-ATPase (hydrolysis of 32P-ATP). The assay is classed as biochemical.
[1] abbreviates: dog kidney enzyme, hydrolysis of 32P-ATP in presence and absence of compound, read-out: Na+, K+-ATPase Inhibition IC50.
The mark [2] stands for this setting: read-out: Na+, K+-ATPase Inhibition IC50.

Structures can show the parent of a compound that is named as a salt. Where two headings read alike, the source gives them in different places.

In the case of `C[C@]12CC/C(=N\OC3CCNCC3)CC1C(=O)C[C@@H]1[C@@H]2CC[C@]2(C)C(=O)CC[C@@H]12` (some centres unmarked) [I-aa, (E) 3-(4-Piperidyl)oxyiminoandrostane-6,17-dione hydrochloride], the IC50 (Na+, K+-ATPase Inhibition IC50) worked out at 4100 nM.
The same measure, in the same setting: for `CN1CCC(ON=C2CCC3(C)C(C2)C(=O)CC2C4CCC(=O)C4(C)CCC23)C1` (single isomer, unassigned) [I-ak, hydrochloride] the value was 41000 nM.
For `CON=C1CC2C3CCC(=O)C3(C)CCC2C2(C)CCC(=NOC3CCN(C)C3)CC12` (mixture of isomers) [I-bg, (E,Z) 3-[3′-(R)-(1-Methyl)pyrrolidinyl]oxyimino-(E)-6-methoxyiminoandrostane-17-one hydrochloride], the IC50 under setting [1] worked out at 5700 nM.
Same read-out and setting: for `CON=C1CC2CC(=NOC3CCNC3)CCC2(C)C2CCC3(C)C(=O)CCC3C12` (mixture of isomers) [I-ce, (E,Z) 3-[3-(R)-Pyrrolidinyl]oxyimino-7(E)-methoxyiminoandrostan-17-one fumarate] the value was 3000 nM.
Turning to `COCC1CC2C3CCC(=O)C3(C)CCC2C2(C)CCC(=NOC3CCNC3)CC12` (mixture of isomers) [I-as, (E,Z) 3-[3-(R)-Pyrrolidinyl]oxyimino-6α-methoxymethylandrostane-17-one hydrochloride], under setting [1], the IC50 came out at 320 nM.
For the setting “Na+, K+-ATPase Inhibition IC50”, `C=C1CC2C3CCC(=O)C3(C)CCC2C2(C)CCC(=NOC3CCNC3)CC12` (mixture of isomers) [I-aq, (E,Z) 3-[3-(R)-Pyrrolidinyl]oxyimino-6-methyleneandrostane-17-one hydrochloride] showed an IC50 of 46 nM.
For “3β-(2(R,S)-Morpholinylcarbonyloxy)androstane-6,7-dione fumarate [I-cz]”, the IC50 under setting [2] worked out at 12000 nM.
In the case of `CC12CCC3C(CC4(CC4)C4CC(=NOC5CCNC5)CCC34C)C1CCC2=O` (mixture of isomers) [I-ba, (Z,E) 3-(3-(R)-Pyrrolidinyloxyimino)-6-(spirocyclopropane)androstane-17-one hydrochloride], under setting [1], the IC50 amounted to 220 nM.
Still for that read-out and setting: for `CC12CCC3C(C(NC=O)CC4CC(=NOC5CCNC5)CCC43C)C1CCC2=O` (mixture of isomers) [I-cp, (E,Z) 3-[3′-(R)-Pyrrolidinyl]oxyimino-7α-formamidoandrostane-17-one hydrochloride] the value was 4600 nM.
Turning to `C=C1C[C@H]2[C@@H]3CCC(=O)[C@@]3(C)CC[C@@H]2[C@@]2(C)CC/C(=N\O[C@@H]3CCN(C)C3)C[C@]12O` [I-bm, (E) 3-[3′-(R)-(1-Methyl)-pyrrolidinyl]oxyimino-5α-hydroxy-6-methyleneandrostane-17-one fumarate], the IC50 under setting [2] came out at 1400 nM.
The compound `CC12CCC3C(CC(=O)C4CC(=NOCC5CCCN5)CCC43C)C1CCC2=O` (mixture of isomers) [I-ai, hydrochloride] had an IC50 (Na+, K+-ATPase Inhibition IC50) of 11000 nM.
Regarding `CON=C1CC2C3CCC(=O)C3(C)CCC2C2(C)CCC(=NOC3CCN(C)C3)CC12` (mixture of isomers) [I-bf, (E,Z) 3-[3′-(S)-(1-Methyl)pyrrolidinyl]oxyimino-6-(E)-methoxyimino-androstane-17-one hydrochloride], the IC50 under setting [1] is 7600 nM.
`CC12CCC3C(CC(=O)C4CC(=NOC5CCNC5)CCC43C)C1CCC2=O` (single isomer, unassigned) [I-ad, hydrochloride] came in with an IC50 (Na+, K+-ATPase Inhibition IC50) of 830 nM.
Take `CC12CCC3C(CC(=O)C4CC(C=CC5CCNCC5)CCC43C)C1CCC2=O` (stereo not drawn) [I-dg, 3α-[2-(Pyperidin-4-yl)-(Z)-vinyl]androstane-6,17-dione formate]: the IC50 under setting [1] came out at 890 nM.
`CC12CCC3C(C(O)C(CO)C4CC(=NOC5CCNC5)CCC43C)C1CCC2=O` (single isomer, unassigned) [I-dl, hydrochloride] came in with an IC50 (Na+, K+-ATPase Inhibition IC50) of 170 nM.
Regarding `CC12CCC3C(CC(CO)C4CC(=NOC5CCNC5)CCC43C)C1CCC2=O` (mixture of isomers) [I-ar, (E,Z) 3-[3-(R)-Pyrrolidinyl]oxyimino-6α-hydroxymethylandrostan-17-one hydrochloride], under setting [1], the IC50 was found to be 26 nM.
Same read-out and setting: the value for `CC12CCC3C(CC(NC=O)C4CC(=NOC5CCNC5)CCC43C)C1CCC2=O` (mixture of isomers) [I-ay, (E,Z) 3-[3-(R)-Pyrrolidinyl]oxyimino-6α-formamidoandrostane-17-one hydrochloride] was 41 nM.
The compound `CC1CC2CC(=NOC3CCNC3)CCC2(C)C2CCC3(C)C(=O)CCC3C12` [I-cm, (E) 3-[3′-(R)-Pyrrolidinyl]oxyimino-7β-methylandrostane-17-one hydrochloride] came in with an IC50 (Na+, K+-ATPase Inhibition IC50) of 140 nM.
`CN1CCC(ON=C2CCC3(C)C(C2)C(=O)CC2C4CCC(=O)C4(C)CCC23)C1` (single isomer, unassigned) [I-al] gave an IC50 (Na+, K+-ATPase Inhibition IC50) of 1300 nM.
In the case of `CON=C1CC2C3CCC(=O)C3(C)CCC2C2(C)CCC(=NOC3CCNC3)CC12O` (single isomer, unassigned) [I-bv], the IC50 under setting [1] came to 150 nM.
For `CC12CCC3C(CC(=O)C4CC(=NOC5CNC5)CCC43C)C1CCC2=O` (mixture of isomers) [I-ab], the IC50 (Na+, K+-ATPase Inhibition IC50) turned out to be 260 nM.
For the compound `CC12CCC3C(CC(O)C4CC(=NOC5CCNC5)CCC43C)C1CCC2=O` (single isomer, unassigned) [I-ao, hydrochloride], the IC50 (Na+, K+-ATPase Inhibition IC50) stood at 2300 nM.
The same measure, in the same setting: the value for `C=C1CC2C3CCC(=O)C3(C)CCC2C2(C)CCC(=NOC3CCNC3)CC12O` (racemic) [I-bk, (E,Z) 3-[3′-(S)-Pyrrolidinyl]oxyimino-5α-hydroxy-6-methylene-androstane-17-one fumarate] was 480 nM; that for `CC12CCC3C(CC(O)C4CC(=NOC5CCNC5)CCC43C)C1CCC2O` (mixture of isomers) [I-do, (E,Z) 3-[3-(R)-Pyrrolidinyl]oxyiminoandrostane-6α,17β-diol hydrochloride] was 490 nM.
Still for that read-out and setting: the value for `C[C@]12CC[C@H](OC(=O)C3CCNCC3)CC1C(=O)C[C@@H]1[C@@H]2CC[C@]2(C)C(=O)CC[C@@H]12` (stereo partly drawn) [I-cw, 3β-(4-Piperidinylcarbonyloxy)androstane-6,17-dione hydrochloride] was 11000 nM.
Turning to `C[C@@H]1CC2CC(=NO[C@@H]3CCNC3)CC[C@]2(C)[C@H]2CC[C@]3(C)C(=O)CC[C@H]3[C@H]12` (stereo partly drawn) [I-ck, (E,Z) 3-[3′-(R)-Pyrrolidinyl]oxyimino-7α-methylandrostane-17-one hydrochloride], the IC50 under setting [2] was 210 nM.
As for `C=C1C[C@H]2[C@@H]3CCC(=O)[C@@]3(C)CC[C@@H]2[C@@]2(C)CC/C(=N/O[C@H]3CCN(C)C3)C[C@]12O` [I-bn, (Z) 3-[3′-(S)-(1-Methyl)pyrrolidinyl]oxyimino)-5α-hydroxy-6-methyleneandrostane-17-one fumarate], where the note is “Na+, K+-ATPase Inhibition IC50”, inhibition was half-maximal at 95000 nM (IC50).
Turning to `COC1CC2CC(=NOC3CCNC3)CCC2(C)C2CCC3(C)C(=O)CCC3C12` (mixture of isomers) [I-dn, (E,Z) 3-[3-(R)-Pyrrolidinyl]oxyimino-7α-methoxyandrostane-17-one fumarate], the IC50 under setting [1] came out at 5900 nM.
With `COC(=O)[C@@H]1CC2C/C(=N/O[C@@H]3CCNC3)CC[C@]2(C)[C@H]2CC[C@]3(C)C(=O)CC[C@H]3[C@H]12` (stereo partly drawn) [I-cq, (E) 3-[3′-(R)-Pyrrolidinyl]oxyimino-7α-methoxycarbonylandrostane-17-one hydrochloride], under setting [2], the IC50 stood at 960 nM.
Regarding `CC12CCC3C(CC(=O)C4CC(OC(=O)C5CCNC5)CCC43C)C1CCC2=O` (mixture of isomers) [I-cy, 3β-(3(R,S)-Pirrolidinylcarbonyloxy)androstane-6,17-dione fumarate], where the note is “Na+, K+-ATPase Inhibition IC50”, the half-inhibitory concentration (IC50) is 4200 nM.
Turning to “3α-[2-(Pyrrolidin-3-(R)-yl)-(Z)-vinyl]androstane-6,7-dione formate [I-df]”, under setting [2], the IC50 is 360 nM.
With `CO/N=C1\C[C@H]2[C@@H]3CCC(=O)[C@@]3(C)CC[C@@H]2[C@@]2(C)CC/C(=N/O[C@H]3CCN(C)C3)C[C@]12O` [I-bx, (Z) 3-[3′-(S)-(1-Methyl)pyrrolidinyl]oxyimino)-5α-hydroxy-6-(E)-methoxyiminoandrostane-17-one fumarate], the IC50 under setting [1] worked out at 96000 nM.
The compound `CON=C1CC2C3CCC(=O)C3(C)CCC2C2(C)CCC(=NOC3CCNC3)CC12` (single isomer, unassigned) [I-bd, hydrochloride] yielded an IC50 (Na+, K+-ATPase Inhibition IC50) of 18 nM.
The same measure, in the same setting: the value for `CC1CC2CC(=NOC3CCNC3)CCC2(C)C2CCC3(C)C(=O)CCC3C12` [I-cn, (Z) 3-[3′-(R)-Pyrrolidinyl]oxyimino-7β-methylandrostane-17-one hydrochloride] was 340 nM.
On to `CO/N=C1\C[C@H]2[C@@H]3CCC(=O)[C@@]3(C)CC[C@@H]2[C@@]2(C)CC/C(=N/O[C@@H]3CCN(C)C3)C[C@]12O` [I-bz, (Z) 3-[3′-(R)-(1-Methyl)pyrrolidinyl]oxyimino)-5α-hydroxy-6-(E)-methoxyiminoandrostane-17-one fumarate], for which the concentration for half-maximal inhibition (IC50) under setting [1] stood at 94000 nM.
For the compound `C=C1C[C@H]2[C@@H]3CCC(=O)[C@@]3(C)CC[C@@H]2[C@@]2(C)CC/C(=N/O[C@H]3CCNC3)C[C@]12O` [I-bi, (Z) 3-[3′-(S)-Pyrrolidinyl]oxyimino-5α-hydroxy-6-methyleneandrostane-17-one fumarate], the IC50 (Na+, K+-ATPase Inhibition IC50) is 6000 nM.
Still for that read-out and setting: the value for `C=C1C[C@H]2[C@@H]3CCC(=O)[C@@]3(C)CC[C@@H]2[C@@]2(C)CC/C(=N\O[C@H]3CCNC3)C[C@]12O` [I-bj, (E) 3-[3′-(S)-Pyrrolidinyl]oxyimino-5α-hydroxy-6-methyleneandrostane-17-one fumarate] was 480 nM.
As for `CC12CCC3C(CC(=O)C4CC(=NOC5CCCNC5)CCC43C)C1CCC2=O` (mixture of isomers) [I-aj, (E) 3-[3′-(R,S)-Piperidinyl]oxyiminoandrostane-6,7-dione hydrochloride], where the note is “Na+, K+-ATPase Inhibition IC50”, the IC50 is 33000 nM.
As for “(E) 3-[3-(R)-Pyrrolidinyl]oxyiminoandrostane-6,7-dione hydrochloride [I-af]”, the IC50 under setting [2] came out at 16 nM.
The compound `CC12CCC3C(CC(=O)C4CC(=NOC5CCNC5)CCC43C)C1CCC2=O` (single isomer, unassigned) [I-ag, hydrochloride] gave an IC50 (Na+, K+-ATPase Inhibition IC50) of 110 nM.
Regarding `CC12CCC3C(C(CO)CC4CC(=NOC5CCNC5)CCC43C)C1CCC2=O` (mixture of isomers) [I-ci, (E,Z) 3-[3′-(R)-Pyrrolidinyl]oxyimino-7β-hydroxymethylandrostane-17-one hydrochloride], under setting [1], the IC50 came to 330 nM.

As a reminder, the IC50 is the midpoint of a concentration-inhibition curve.
